According to US20230348376A1 (TEIJIN PHARMA LIMITED, priority 2020, published 2023):
Like-named read-outs stand apart in the source and are kept apart here.

Columns and labels:
[1] = test system: rat oligodendrocyte progenitor cells; assay: Promotive activity of rat oligodendrocyte progenitor cell differentiation-2 (immunostaining of MBP); assay type: cell-based; conditions: vitamin D derivative 2 μM, T3 30 nM, 4 days
How it was run: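 Vitamin D derivatives scored as symbols for promoting differentiation, read out by MBP immunostaining. OPCs taken from supernatant after about 22 h shaking (37 °C, 200 rpm) in separation medium.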

[2] = Evaluation of brain penetration in mice (blood and brain concentration at brain Cmax); assay type: in vivo, mouse; conditions: 1 mg/kg single oral dose, C57BL/6J mice; for Concentration in blood (mean ± SD) at brain Cmax / Concentration in brain (mean ± SD) at brain Cmax: n=3; for Kp: male, mouse, brain/plasma, read-out: Concentration in brain/in blood ratio at brain Cmax
How it was run: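 Male C57BL/6J mice (8 weeks, n=3) dosed orally once at 1 […] mg/kg; plasma and brain collected at 0.25, 0.5, 1, 2, 4 and 8 h. Compound extracted with acetonitrile from brain homogenate and plasma, quantified by LC/MS/MS.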

human VDR = biological target: T1, human VDR (Homo sapiens, UniProt P11473); assay: Evaluation of VDR transcription activity in human osteoblasts (HOS cells), luciferase reporter; conditions: Activity (EC50, VDR transcription activity), HOS cells transfected with human VDR, human RXRα and DR3 luciferase reporter; 21 hours
T1 sequence (P11473 1-427): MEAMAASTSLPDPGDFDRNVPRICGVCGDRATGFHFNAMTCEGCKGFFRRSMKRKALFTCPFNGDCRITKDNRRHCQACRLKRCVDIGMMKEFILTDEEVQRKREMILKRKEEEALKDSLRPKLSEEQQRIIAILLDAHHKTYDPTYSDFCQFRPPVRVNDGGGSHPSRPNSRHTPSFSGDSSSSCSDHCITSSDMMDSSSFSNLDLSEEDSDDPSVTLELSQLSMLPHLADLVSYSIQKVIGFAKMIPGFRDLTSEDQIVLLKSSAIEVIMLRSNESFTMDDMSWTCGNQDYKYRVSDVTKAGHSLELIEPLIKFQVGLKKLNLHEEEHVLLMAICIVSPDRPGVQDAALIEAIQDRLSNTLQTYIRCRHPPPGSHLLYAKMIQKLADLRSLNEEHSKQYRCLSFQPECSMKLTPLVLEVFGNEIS
T1 sequence (P19793 1-462 partner): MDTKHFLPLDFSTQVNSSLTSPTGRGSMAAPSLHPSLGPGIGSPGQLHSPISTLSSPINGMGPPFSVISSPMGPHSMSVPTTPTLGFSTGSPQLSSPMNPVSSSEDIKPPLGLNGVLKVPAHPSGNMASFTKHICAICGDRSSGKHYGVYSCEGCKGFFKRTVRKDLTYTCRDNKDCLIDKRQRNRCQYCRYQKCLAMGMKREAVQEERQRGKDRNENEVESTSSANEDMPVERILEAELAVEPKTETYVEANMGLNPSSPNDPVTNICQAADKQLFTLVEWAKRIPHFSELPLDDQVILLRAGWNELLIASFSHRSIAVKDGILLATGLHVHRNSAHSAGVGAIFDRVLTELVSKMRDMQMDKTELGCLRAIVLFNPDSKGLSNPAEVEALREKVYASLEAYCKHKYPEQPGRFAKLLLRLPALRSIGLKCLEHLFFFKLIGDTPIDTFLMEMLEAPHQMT

Concentration in blood (mean ± SD) at brain Cmax [2] [nM] | Concentration in brain (mean ± SD) at brain Cmax [2] [pmol/g] | Kp ([2]; C57BL/6J, po, 1 mg/kg) | EC50 (human VDR) [nM] | Concentration in brain/in blood ratio at brain Cmax [2] | Compound | Mean (number of MBP-positive cells/number of Hoechst33342-positive cells) ([1]; Test 1) | Mean (number of MBP-positive cells/number of Hoechst33342-positive cells) ([1]; Test 2) | Kp [2]
88 ± 19 | 74 ± 17 | 0.84 | 10 to 100 | – | C=C1/C(=C\C=C2/CCC[C@]3(C)[C@@H]([C@H](C)CN4CC[C@@H](CC(F)F)C4)CC[C@@H]23)C[C@@H](O)C[C@@H]1O [Compound B037, (1R,3S,Z)-5-(2-((1R,3aS,7aR,E)-1-((S)-1-((S)-3-(2,2-difluoroethyl)pyrrolidin-1-yl)propan-2-yl)-7a-methyloctahydro-4H-inden-4-ylidene)ethylidene)-4-methylenecyclohexane-1,3-diol] | 0.49 | – | –
190 ± 23 | 338 ± 36 | 1.78 | 10 to 100 | – | C=C1[C@H](O)CC(=C/C=C2\CCC[C@]3(C)[C@@H]([C@H](C)CN4CCC(C(C)(F)F)CC4)CC[C@@H]23)C[C@H]1O [Compound C055, (1R,3R)-5-(2-((1R,3aS,7aR,E)-1-((S)-1-(4-(1,1-difluoroethyl)piperidin-1-yl)propan-2-yl)-7a-methyloctahydro-4H-inden-4-ylidene)ethylidene)-2-methylenecyclohexane-1,3-diol] | – | 0.48 | –
248 ± 28 | 852 ± 48 | 3.44 | 1 to 10 | – | C=C1[C@H](O)CC(=C/C=C2\CCC[C@]3(C)[C@@H]([C@H](C)CN4CC[C@H](C(F)F)C4)CC[C@@H]23)C[C@H]1O [Compound B023, (1R,3R)-5-(2-((1R,3aS,7aR,E)-1-((S)-1-((S)-3-(difluoromethyl)pyrrolidin-1-yl)propan-2-yl)-7a-methyloctahydro-4H-inden-4-ylidene)ethylidene)-2-methylenecyclohexane-1,3-diol] | 0.50 | – | –
161 ± 40 | 156 ± 15 | 0.97 | 1 to 10 | – | C=C1/C(=C\C=C2/CCC[C@]3(C)[C@@H]([C@H](C)CN4CC[C@H](C(C)(F)F)C4)CC[C@@H]23)C[C@@H](O)[C@H](C)[C@@H]1O [Compound B029, (1R,2S,3S,Z)-5-(2-((1R,3aS,7aR,E)-1-((S)-1-((S)-3-(1,1-difluoroethyl)pyrrolidin-1-yl)propan-2-yl)-7a-methyloctahydro-4H-inden-4-ylidene)ethylidene)-2-methyl-4-methylenecyclohexane-1,3-diol] | 0.31 | – | –
61 ± 11 | 68 ± 36 | 1.12 | 10 to 100 | – | C=C1/C(=C\C=C2/CCC[C@]3(C)[C@@H]([C@H](C)CN4CC[C@H](CC(F)F)C4)CC[C@@H]23)C[C@@H](O)C[C@@H]1O [Compound B036] | 0.59 | – | –
271 ± 16 | 141 ± 8 | 0.52 | 100 to 1000 | – | C[C@H](CN1CC[C@H](OCC(F)F)C1)[C@H]1CC[C@H]2/C(=C/C=C3C[C@@H](O)C[C@H](O)C3)CCC[C@]12C [Compound B057, (1R,3R)-5-(2-((1R,3aS,7aR,E)-1-((S)-1-((S)-3-(2,2-difluoroethoxy)pyrrolidin-1-yl)propan-2-yl)-7a-methyloctahydro-4H-inden-4-ylidene)ethylidene)cyclohexane-1,3-diol] | – | 0.57 | –
79 ± 7 | 60 ± 5 | 0.75 | 10 to 100 | – | C[C@H](CN1CC[C@H](CC(F)F)C1)[C@H]1CC[C@H]2/C(=C/C=C3C[C@@H](O)C[C@H](O)C3)CCC[C@]12C [Compound B042, (1R,3R)-5-(2-((1R,3aS,7aR,E)-1-((S)-1-((R)-3-(2,2-difluoroethyl)pyrrolidin-1-yl)propan-2-yl)-7a-methyloctahydro-4H-inden-4-ylidene)ethylidene)cyclohexane-1,3-diol] | 0.62 | 0.53 | –
676 ± 175 | 410 ± 23 | 0.61 | 10 to 100 | – | C=C1/C(=C\C=C2/CCC[C@]3(C)[C@@H]([C@H](C)CN4CC[C@H](C(F)F)C4)CC[C@@H]23)C[C@@H](O)C[C@@H]1O [Compound B020, (1R,3S,Z)-5-(2-((1R,3aS,7aR,E)-1-((S)-1-((S)-3-(difluoromethyl)pyrrolidin-1-yl)propan-2-yl)-7a-methyloctahydro-4H-inden-4-ylidene)ethylidene)-4-methylenecyclohexane-1,3-diol] | 0.38 | – | –
316 ± 84 | 529 ± 53 | 1.67 | 10 to 100 | – | C[C@H](CN1CC[C@H](C(F)F)C1)[C@H]1CC[C@H]2/C(=C/C=C3C[C@@H](O)C[C@H](O)C3)CCC[C@]12C [Compound B022, (1R,3R)-5-(2-((1R,3aS,7aR,E)-1-((S)-1-((S)-3-(difluoromethyl)pyrrolidin-1-yl)propan-2-yl)-7a-methyloctahydro-4H-inden-4-ylidene)ethylidene)cyclohexane-1,3-diol] | 0.47 | – | –
853 ± 89 | 495 ± 16 | – | 10 to 100 | 0.58 | C=C1[C@H](O)CC(=C/C=C2\CCC[C@]3(C)[C@@H]([C@H](C)CN4CCCC(O)(C(F)F)C4)CC[C@@H]23)C[C@H]1O (single isomer, unassigned) [Compound C036b] | – | 0.22 | –

Compound | Concentration in blood (mean ± SD) at brain Cmax [2] [nM] | Concentration in brain (mean ± SD) at brain Cmax [2] [pmol/g] | Kp ([2]; C57BL/6J, po, 1 mg/kg) | EC50 (human VDR) [nM] | Concentration in brain/in blood ratio at brain Cmax [2] | Mean (number of MBP-positive cells/number of Hoechst33342-positive cells) ([1]; Test 1) | Mean (number of MBP-positive cells/number of Hoechst33342-positive cells) ([1]; Test 2) | Kp [2]
C[C@H](CN1CCOC2(CC2)C1)[C@H]1CC[C@H]2/C(=C/C=C3C[C@@H](O)C[C@H](O)C3)CCC[C@]12C [Compound D019, (1R,3R)-5-(2-((1R,3aS,7aR,E)-1-((S)-1-(4-oxa-7-azaspiro[2.5]octan-7-yl)propan-2-yl)-7a-methyloctahydro-4H-inden-4-ylidene)ethylidene)cyclohexane-1,3-diol] | 280 ± 53 | 811 ± 163 | – | 10 to 100 | – | – | 0.57 | 2.89
